The source of these data is patent US20180169085A1, “Combination Therapy for Hemorrhagic Injury” (Augusta University Reserch Institute, Inc., priority 2016, published 2018).

Assay [1] concerns rats subjected to hemorrhagic injury (HI). The assay can be described thus: Survival after hemorrhagic injury without resuscitation. The format is in vivo, rat. The settings on record: p<0.05 versus HI+Veh; for survival time: FIG. 4.
Excerpt: Male Sprague Dawley rats (250-350 g) were obtained from Charles River Laboratory (Wilmington, Mass., USA). […] All animals were housed in Augusta University animal facility during the experiments.
The animals were fasted overnight (water allowed ad libitum) prior to the sham or hemorrhagic injury (HI) procedure. […] Femoral vein was cannulated to administer fluids. Surgical sites were bathed with bupivacaine. Sham animals were not subjected to bleeding or resuscitation. Upon awakening, the animals in HI groups were bled rapidly within the first 10 min to a MAP of 40±5 mmHg. The bleeding was continued for 45 min, maintaining the low MAP, until 60% of circulatory blood volume was withdrawn. The animals were maintained in the state of shock by maintaining MAP at 40±5 for another 45 min. During this time not more than 40% of the shed blood volume in the form of Ringer lactate was given to maintain the blood pressure. Resuscitation was performed with Ringer lactate for one hour on animals in the respective groups. Vehicle (dimethyl sulfoxide [DMSO]; 120 μL/mouse) or drug was administered at 10 min from the onset of resuscitation or immediately after shock period when there was no resuscitation.
Rats were subjected to HI and Veh, RSV or SRT1720 administered (n=5-6). (RSV: 10 mg/Kg body weight; SRT1720: 2 mg/Kg body weight.
For assay [2] the test system is unchanged. The assay can be described thus: Cardiac function (dP/dt) after hemorrhagic injury in rat model. The settings on record: RSV treatment vs HI+Veh, n=4-6, p<0.05 vs sham, FIG. 1. Format: in vivo. An excerpt:
(§1) Male Sprague Dawley rats (250-350 g) were obtained from Charles River Laboratory (Wilmington, Mass., USA). The experiments performed in this study including surgical procedures were approved by the Institutional Animal Care and Use Committee (IACUC) at Augusta University. All animals were housed in Augusta University animal facility during the experiments. The animals were fasted overnight (water allowed ad libitum) prior to the sham or hemorrhagic injury (HI) procedure. Hemorrhagic procedure was as described before with some modification (Jian, B. et al., Mol. Med., 18:209-14 (2012). The animals were anesthetized with 2.5% isoflurane (Henry Schein, Dublin, Ohio, USA) and were placed on Plexiglas plate in a supine position. Isoflurane was administered in oxygen using an anesthetic vaporizer. Midline laparotomy (5 cm) was performed in both sham and HI animals to induce soft tissue trauma. Incision was closed aseptically in two layers with sutures. Two femoral arteries and one femoral vein were cannulated (PE-50 tubing), one artery was hooked up to a Blood Pressure Analyzer (Digi-Med; Micro-Med Inc., Louisville, Ky., USA) to monitor mean arterial pressure (MAP) and bleeding was performed through the other artery. Femoral vein was cannulated to administer fluids. Surgical sites were bathed with bupivacaine. Sham animals were not subjected to bleeding or resuscitation. […]

Assay [3] has the same test system. The assay can be described thus: 10-day survival study after hemorrhagic injury with resuscitation. Format: in vivo, rat.
Excerpt: Male Sprague Dawley rats (250-350 g) were obtained from Charles River Laboratory (Wilmington, Mass., USA). The experiments performed in this study including surgical procedures were approved by the Institutional Animal Care and Use Committee (IACUC) at Augusta University. All animals were housed in Augusta University animal facility during the experiments.
as §1, with “The” for “Male Sprague Dawley rats (250-350 g) were obtained from Charles River Laboratory (Wilmington, Mass., USA). The experiments performed in this study including surgical procedures were approved by the Institutional Animal Care and Use Committee (IACUC) at Augusta University. All animals were housed in Augusta University animal facility during the experiments. The”

The structures appear in SMILES notation. Entries after “also recorded” stand apart in the source; their conditions may differ.

Consider `O=C(Nc1ccccc1-c1cn2c(CN3CCNCC3)csc2n1)c1cnc2ccccc2n1` [SRT1720], for which the survival time result in assay [1] (SRT1720 2 mg/Kg body weight, without resuscitation) was “Prolong Life”.
Take `O=C(O)c1cccnc1` [niacin, nicotinic acid]: the survival entry in assay [1] (niacin 1, 5, 10 mg/kg, without resuscitation, all curves, FIG. 6) was “prolonged survival”.
With `Oc1ccc(/C=C/c2cc(O)cc(O)c2)cc1` [resveratrol, 3,5,4-tribydroxystilbene], the “+dp/dt and −dp/dt” value in assay [2] is “restored”. For the same molecule, the survival time result in assay [1] (RSV 10 mg/Kg body weight, absence of resuscitation) is reported as “survived for a significantly longer period of time”. Besides, the mean weight gain result in assay [3] (10-day survival study, RSV 10 mg/kg, data not shown) is recorded as “significantly improved”. In assay [3] (10-day survival, RSV 10 mg/kg body weight along with resuscitation fluid, p<0.05, FIG. 3), the mortality result is on record as “reduce mortality significantly; also recorded: significantly reduced”.
